Experimental data published in US9844521B2, “Pharmaceutical composition comprising ginger extract or shogaol” (UNIVERSITY-INDUSTRY COOPERATION GROUP OF KYUNG HEE …, priority 2008, dated 2017).

Tests used:
[1] = tested on: C57BL/6 mouse having MPTP-induced Parkinson's disease; assay: Pole test in MPTP-induced Parkinson's disease model; assay type: in vivo; settings: 10 mg/kg oral once per day for 5 days, MPTP 30 mg/kg i.p.
Description: 7-week old C57BL/6 based male mice (19-22 g) were obtained and nurtured in an animal laboratory at Kyunghee University Graduate School of East-West Medicine
Science for one week or more for adaptation. Water and feed were freely supplied, and the temperature (22±2[…]), humidity (53±3%), and a cycle of brightness and darkness (12 hours) were automatically controlled. Shogaol used was obtained from WAKO Company (Japan).
Mice were divided into three groups, each of which consisted of 6 mice. A first group (control) and a second group (MPTP group) were orally administered once per day with 10% dimethyl sulfoxide in an amount of 5 ml per mouse weight kg for 5 days, and a third group (shogaol-administered group) was orally administered once per day with 10 mg/kg of shogaol dissolved in 10% dimethyl sulfoxide for 5 days. […]
On a day after the last day of the 5-day administration period, a pole test was performed using a pole having a height of 50 cm and a diameter of 1 cm. A C57bl/6 mouse was placed on the pole with its head upward, and a time during which the mouse turns a summit of the pole at an angle of 180° and moves downward until its four feet touch the ground was measured. […]

[2] = tested on: C57BL/6 mouse having MPTP-induced Parkinson's disease; assay: Dopamine cell protective activity in striatum and substantia nigra (TH immunohistochemistry), MPTP model; assay type: in vivo; settings: 10 mg/kg oral once per day for 5 days, MPTP 30 mg/kg i.p., p<0.05 vs MPTP group
Description: Mice were divided into three groups, each of which consisted of 6 mice. A first group (control) and a second group (MPTP group) were orally administered once per day with 10% dimethyl sulfoxide in an amount of 5 ml per mouse weight kg for 5 days, and a third group (shogaol-administered group) was orally administered once per day with 10 mg/kg of shogaol dissolved in 10% dimethyl sulfoxide for 5 days. 2 hours after the oral administration, the first group (control) was intraperitoneally administered with saline in an amount of 5 ml per mouse weight kg for 5 days, and the second and third groups were intraperitoneally administered with 30 mg/kg of MPTP dissolved in saline for 5 days.
The mice of the respective groups were sacrificed after the pole test was completely performed, and brain tissues (striatum and substantia nigra) were isolated. […]
The mice of the respective groups were sacrificed after the pole test was completely performed, and brain tissues (striatum and substantia nigra) were isolated. Protection activity was evaluated using the isolated brain tissues in the same manner as in (1-2) above, and the results are shown in FIGS. 14 and 15. […]

[3] = tested on: ICR mice; assay: Passive avoidance task (cognitive ability enhancement); assay type: in vivo, mouse; settings: 5 mg/kg oral once per day for 3 days; control 165.50±23.39 seconds; p<0.05
Description: Male ICR mice having a weight of 25-28 g were obtained and nurtured in an animal laboratory at Kyunghee University Graduate School of East-West Medicine Science for 7 days for adaptation. Water and feed were freely supplied, and the temperature (22±2[…]), humidity (53±3%), and a cycle of brightness and darkness (12 hours) were automatically controlled. Shogaol used was obtained from WAKO Company (Japan).
Mice were divided into two groups, each of which consisted of 10 mice. A first group (control) was orally administered with 10% dimethyl sulfoxide in an amount of 5 ml per mouse weight kg for 3 days, and a second group was orally administered with 5 mg/kg of shogaol dissolved in 10% dimethyl sulfoxide for 3 days. […]
In a test device having an inner structure divided into two identical spaces with a door therebetween, on a first day, one space was bright and the other space was dark, and a test animal was allowed to stay in the bright space for 10 seconds and then the door was opened, and when the test animal moved toward the dark space, 0.25 mA of an electrical stimulation was applied to the feet of the test animal. After 24 hours, the same passive avoidance task was performed and a time during which the test animal stayed in the light space was measured. […]

Compound: CCCCC/C=C/C(=O)CCc1ccc(O)c(OC)c1 [shogaol, (E)-1-(4-hydroxy-3-methoxyphenyl)dec-4-en-3-one]
- T-la (% of control), pole test [1]: 99.1 ± 8.11%
- number of TH positive cells in substantia nigra ([2]; of a control): 70.30±4.86
- optical density of striatum (TH immunoreactivity) [2]: 80.11±1.97 % of a control
- latency time [3]: 240.63 ± 24.14 s
